According to ChEMBL document CHEMBL1150148, “Isolation and structure elucidation of an isoflavone and a sesterterpenoic acid from Henriettella fascicularis” (J Nat Prod, 2002):

Columns and labels:
Ishikawa [1] = assay: Antiestrogenic activity in human Ishikawa cells assessed as inhibition of estradiol-induced induction of alkaline phosphatase activity at 20 uM after 4 days by para-nitrophenol release assay; assay type: functional; conditions: 96 h
Ishikawa [2] = assay: Antiestrogenic activity in human Ishikawa cells assessed as inhibition of estradiol-induced induction of alkaline phosphatase activity after 4 days by para-nitrophenol release assay; assay type: functional, cell-based; conditions: 96 h
Estrogen receptor = target: T1, Estrogen receptor (Homo sapiens, UniProt P03372)
T1 sequence (P03372 whole entry): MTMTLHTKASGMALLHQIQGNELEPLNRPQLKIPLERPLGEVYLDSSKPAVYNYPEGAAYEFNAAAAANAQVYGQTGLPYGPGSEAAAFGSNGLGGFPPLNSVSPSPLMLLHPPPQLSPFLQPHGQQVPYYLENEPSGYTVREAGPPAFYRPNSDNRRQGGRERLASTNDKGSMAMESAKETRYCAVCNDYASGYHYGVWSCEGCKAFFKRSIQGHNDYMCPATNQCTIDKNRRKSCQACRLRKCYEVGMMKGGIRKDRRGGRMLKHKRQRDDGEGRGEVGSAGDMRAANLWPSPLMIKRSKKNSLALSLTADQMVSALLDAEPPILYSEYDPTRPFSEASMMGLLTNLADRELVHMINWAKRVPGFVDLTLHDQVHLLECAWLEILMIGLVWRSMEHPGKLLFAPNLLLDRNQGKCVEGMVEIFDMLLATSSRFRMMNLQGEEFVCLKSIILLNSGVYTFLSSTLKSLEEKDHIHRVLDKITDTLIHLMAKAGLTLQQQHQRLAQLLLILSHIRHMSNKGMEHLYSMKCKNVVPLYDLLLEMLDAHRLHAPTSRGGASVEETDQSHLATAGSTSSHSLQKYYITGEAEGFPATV

Ishikawa [3] = assay: Estrogenic activity in human Ishikawa cells assessed as induction of alkaline phosphatase activity after 4 days by para-nitrophenol release assay; assay type: functional, cell-based; conditions: 96 h
Estrogen receptor beta = Estrogen receptor beta (Homo sapiens, UniProt Q92731)
Estrogen receptor beta, sequence (Q92731 whole entry): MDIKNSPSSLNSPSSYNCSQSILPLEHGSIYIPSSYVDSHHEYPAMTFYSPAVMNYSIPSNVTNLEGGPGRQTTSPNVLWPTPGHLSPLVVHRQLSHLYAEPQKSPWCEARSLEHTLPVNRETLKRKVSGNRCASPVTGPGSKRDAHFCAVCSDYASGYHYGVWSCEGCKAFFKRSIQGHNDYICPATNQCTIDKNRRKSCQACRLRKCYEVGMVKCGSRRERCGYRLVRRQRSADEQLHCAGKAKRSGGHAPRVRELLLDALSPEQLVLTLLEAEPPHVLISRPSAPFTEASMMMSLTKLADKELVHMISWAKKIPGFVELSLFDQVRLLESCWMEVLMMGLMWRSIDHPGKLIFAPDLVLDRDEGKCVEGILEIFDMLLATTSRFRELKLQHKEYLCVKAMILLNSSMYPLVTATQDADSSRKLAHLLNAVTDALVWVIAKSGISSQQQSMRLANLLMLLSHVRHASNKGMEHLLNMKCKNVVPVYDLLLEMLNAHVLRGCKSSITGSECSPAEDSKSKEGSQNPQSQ
Description: Displacement of [3H]estradiol from human recombinant ERbeta

| SMILES | inhibition at 20 µM (Ishikawa [1]) [%] | IC50 (Ishikawa [2]) [µM] | IC50 (Estrogen receptor) [µM] | IC50 (Ishikawa [3]) [µM] | IC50 (Estrogen receptor beta) [µM] |
| --- | --- | --- | --- | --- | --- |
| O=c1cc(-c2ccc(O)cc2)oc2cc(O)cc(O)c12 [APIGENIN] | 25 | – | – | – | – |
| Cc1c(O)c(C)c2occ(-c3ccc(O)cc3)c(=O)c2c1O | – | 10.5 | 10.2 | > 20 | 0.88 |
| O=c1c(-c2ccc(O)cc2)coc2cc(O)cc(O)c12 [GENISTEIN] | – | – | – | 0.51 | – |
